According to ChEMBL document CHEMBL5584285, “Advancements in Protein Degradation for Cancer Therapy” (ACS Med Chem Lett, 2024):

Tests used:
[1] = Binding affinity to 6His-tagged KRAS G12V mutant /GST-tagged RAF1 (unknown origin) incubated for 60 mins by fluorescence based microplate reader assay; parameters: species or system Homo sapiens
GTPase KRas = GTPase KRas (Homo sapiens, UniProt P01116, G12V); test: Induction of KRAS G12V mutant degradation in human SW1990 cells incubated for 24 hrs; format: cell-based
Chain of GTPase KRas (P01116 whole entry G12V): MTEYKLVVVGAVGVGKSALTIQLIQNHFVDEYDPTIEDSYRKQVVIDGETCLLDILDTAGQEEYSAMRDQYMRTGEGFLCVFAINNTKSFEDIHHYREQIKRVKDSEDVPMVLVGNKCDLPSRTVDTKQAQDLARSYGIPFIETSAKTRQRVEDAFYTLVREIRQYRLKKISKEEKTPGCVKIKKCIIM

IC50 [1] [nM]	DC50 (GTPase KRas) [nM]	Compound
≤ 20	≤ 1	CCc1c(F)ccc2cc(O)cc(-c3ncc4c(N5CCC[C@@](C)(O)C5)nc(OCC5(CN6CCC(C)(CN7CC8(CCN(c9ccc%10c(c9)CN([C@H]9CCC(=O)NC9=O)C%10=O)CC8)C7)CC6)CC5)nc4c3F)c12
≤ 20	≤ 1	CCc1c(F)ccc2cc(O)cc(-c3ncc4c(N5CCC[C@@](C)(O)C5)nc(OCC5(CN6CCC7(CC6)CC(N6CCN(c8ccc9c(c8)CN([C@H]8CCC(=O)NC8=O)C9=O)CC6)C7)CC5)nc4c3F)c12
≤ 20	≤ 1	CCc1c(F)ccc2cc(O)cc(-c3ncc4c(N5CCC[C@@](C)(O)C5)nc(OCC5(CN6CCC(OC7CCN(C8CCN(c9ccc%10c(c9)CN(C9CCC(=O)NC9=O)C%10=O)CC8)CC7)CC6)CC5)nc4c3F)c12 (some centres not stated)
20	1	CCc1c(F)ccc2cc(O)cc(-c3ncc4c(N5CCC[C@]6(CCO6)C5)nc(OCC5(CN6CCC(CN7CCN(c8ccc9c(c8)CN([C@H]8CCC(=O)NC8=O)C9=O)CC7)CC6)CC5)nc4c3F)c12
≤ 20	≤ 1	CCc1c(F)ccc2cc(O)cc(-c3ncc4c(N5CCC[C@@](C)(O)C5)nc(OCC5(CN6CC(N7CCC(N8CCN(c9ccc%10c(c9)CN([C@H]9CCC(=O)NC9=O)C%10=O)CC8)CC7)C6)CC5)nc4c3F)c12
20	≤ 1	CCc1cccc2cc(O)cc(-c3ncc4c(N5CCC[C@@](C)(O)C5)nc(OCC5(CN6CCC(OC7CCN(c8ccc9c(c8)CN(C8CCC(=O)NC8=O)C9=O)CC7)CC6)CC5)nc4c3F)c12 (some centres not stated)
